Source: patent US20110053773A1, “METHODS OF IMPROVING NUTRITIONAL VALUE OF PLANTS” (UNIVERSITY OF TENNESSEE RESEARCH FOUNDATION, priority 2009, published 2011)

Assays:
Assay type in all cases: in vivo
kale 'Red Russian' = experiment: Content analysis of kale: protein, amino acids, fiber, fatty acids, minerals (Example 4, Tables 12-14); conditions: 28 DA-A
Experimental: (§1) Greenhouse and laboratory studies were conducted to ascertain the tolerance and nutritional quality differences following postemergence applications of the insecticide chlorpyrifos, the fungicide chlorothalonil, the PGRs mepiquat-chloride and paclobutrazol, and the safeners napthalic anhydride and isoxadifen-ethyl on kale ‘Red Russian’ and basil ‘Genovese’. Visual injury was rated based on general phytotoxicity, chlorosis, and visual stunting and each measurement was based on a percent scale from 0 to 100 where 0 equals no visual response and 100 equals complete plant death. Kale and basil were both harvested approximately 4 weeks after treatments and plants were pooled over replicates for content analysis of crude protein, crude amino acid content, acid detergent fiber, neutral detergent fiber, total fatty acids, and/or key mineral content (including Na, Ca, P, Mg, K, Fe, Mn, Zn, and Cu). In addition, the amounts of key individual amino acids (aspartic acid, threonine, glutamic acid, proline, glycine, cysteine, valine, leucine, isoleucine, methionine, and lysine) and composite classifications of fatty acid (saturated fatty acids, monounsaturated fatty acids, polyunsaturated fatty acids) were also analyzed from these sub-samples for kale (Tables 10-14).

kale ‘Red Russian’ = experiment: Yield, fresh weight of kale after insecticide, fungicide and PGRs (Example 4, Table 12); conditions: 28 DA-A, Untreated Check 106.9
Experimental: as §1

basil ‘Genovese’ = experiment: Yield, fresh weight of basil after insecticide, fungicide, PGRs and safeners (Example 4, Table 10); conditions: DA-A, check 31.8
Experimental: as §1

basil 'Genovese' = experiment: Content analysis of basil: protein, minerals (Example 4, Tables 10-11); conditions: 28 DA-A
In short: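 Postemergence greenhouse applications of chlorpyrifos, chlorothalonil, mepiquat-chloride, paclobutrazol, napthalic anhydride or isoxadifen-ethyl. Injury rated visually for phytotoxicity, chlorosis and stunting on a 0–100% scale (0 = no response, 100 = plant death). Plants harvested ~4 weeks after treatment, pooled over replicates for nutrient content analysis.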

[1] = rates g ai/ha: chlropyrifos 1120, chlorothalonil 2630, paclobutrazol 3.23, mepiquat-chloride 12.3, + NIS 0.25 % v/v
[2] = rates g ai/ha: chlropyrifos 3370, chlorothalonil 7900, paclobutrazol 9.7, mepiquat-chloride 37, + NIS 0.25 % v/v
[3] = second-listed rate g ai/ha: chlropyrifos ###, chlorothalonil ###, paclobutrazol 9.7, mepiquat-chloride 37, + NIS 0.3 % v/v
[4] = rates g ai/ha: chlropyrifos 1120, chlorothalonil 2630, paclobutrazol 3.23, mepiquat-chloride 12.3, Isoxadifen 8, Napthalic anhydride 264, + NIS 0.25 % v/v
[5] = rates g ai/ha: chlroprifos 3370, chlorothalonil 7900, paclobutrazol 9.7, mepiquat-chloride 37, Isoxadifen 16, Napthalic anhydride 527, + NIS 0.25 % v/v

In the case of `C[N+]1(C)CCCCC1` [mepiquat-chloride], the “Potassium, Percent Increase Over the Untreated Check (on a % dry matter basis)” value (kale 'Red Russian'; [1]) was −5 % check, the “Sodium, Percent Increase Over the Untreated Check (on a % dry matter basis)” value (kale 'Red Russian'; [1]) was 4 % check and the “Zinc, Percent Increase Over the Untreated Check (on a % dry matter basis)” value (kale 'Red Russian'; [1]) was −5 % check. The “ADF, Percent Increase Over the Untreated Check (on a % dry matter basis)” value (kale 'Red Russian'; [2]) was −2 % check, the “Calcium, Percent Increase Over the Untreated Check (on a % dry matter basis)” value (kale 'Red Russian'; [2]) was −3 % check and the “Copper, Percent Increase Over the Untreated Check (on a % dry matter basis)” value (kale 'Red Russian'; [2]) was −6 % check. For the same compound, the “Iron, Percent Increase Over the Untreated Check (on a % dry matter basis)” value (kale 'Red Russian'; [2]) was −4 % check, the “Magnesium, Percent Increase Over the Untreated Check (on a % dry matter basis)” value (kale 'Red Russian'; [2]) was 0 % check and the “Manganese, Percent Increase Over the Untreated Check (on a % dry matter basis)” value (kale 'Red Russian'; [2]) was −7 % check. For the same compound, the “NDF, Percent Increase Over the Untreated Check (on a % dry matter basis)” value (kale 'Red Russian'; [2]) was −7 % check, the “Phosphorous, Percent Increase Over the Untreated Check (on a % dry matter basis)” value (kale 'Red Russian'; [2]) was 1 % check and the “Potassium, Percent Increase Over the Untreated Check (on a % dry matter basis)” value (kale 'Red Russian'; [2]) was −1 % check. The “Sodium, Percent Increase Over the Untreated Check (on a % dry matter basis)” value (kale 'Red Russian'; [2]) was 4 % check, the “Zinc, Percent Increase Over the Untreated Check (on a % dry matter basis)” value (kale 'Red Russian'; [2]) was −10 % check and the “Alanine, Percent Increase over the Untreated Check (on a % dry matter basis)” value (kale 'Red Russian'; [3]) was −4 % check. For the same compound, the “Aspartic acid, Percent Increase over the Untreated Check (on a % dry matter basis)” value (kale 'Red Russian'; [3]) was −2 % check, the “Cysteine, Percent Increase over the Untreated Check (on a % dry matter basis)” value (kale 'Red Russian'; [3]) was −6 % check and the “Glutamic acid, Percent Increase over the Untreated Check (on a % dry matter basis)” value (kale 'Red Russian'; [3]) was −2 % check. The “Glycine, Percent Increase over the Untreated Check (on a % dry matter basis)” value (kale 'Red Russian'; [3]) was −7 % check, the “Iso-leucine, Percent Increase over the Untreated Check (on a % dry matter basis)” value (kale 'Red Russian'; [3]) was −3 % check and the “Leucine, Percent Increase over the Untreated Check (on a % dry matter basis)” value (kale 'Red Russian'; [3]) was −4 % check. For the same compound, the “Lysine, Percent Increase over the Untreated Check (on a % dry matter basis)” value (kale 'Red Russian'; [3]) was −1 % check, the “Methionine, Percent Increase over the Untreated Check (on a % dry matter basis)” value (kale 'Red Russian'; [3]) was −4 % check and the “Proline, Percent Increase over the Untreated Check (on a % dry matter basis)” value (kale 'Red Russian'; [3]) was 2 % check. For the same compound, the “Threonine, Percent Increase over the Untreated Check (on a % dry matter basis)” value (kale 'Red Russian'; [3]) was −1 % check, the “Total Amino acids, Percent Increase over the Untreated Check (on a % dry matter basis)” value (kale 'Red Russian'; [3]) was −2 % check and the “Total Protein, Percent Increase over the Untreated Check (on a % dry matter basis)” value (kale 'Red Russian'; [3]) was 0 % check. For the same compound, the “Valine, Percent Increase over the Untreated Check (on a % dry matter basis)” value (kale 'Red Russian'; [3]) was −2 % check, the “Yield Fresh weight” value (kale ‘Red Russian’; [1]) was 101.8 grams and the “Yield Fresh weight” value (kale ‘Red Russian’; [2]) was 101.2 grams. For the same compound, the “Yield Fresh weight” value (basil ‘Genovese’; [4]) was 36.9 grams, the “Yield Fresh weight” value (basil ‘Genovese’; rates g ai/ha: chlropyrifos 3370, chlorothalonil 7900, paclobutrazol 9.7, mepiquat-chloride 37, Isoxadifen 16, Napthalic anhydride 527, + NIS 0.25 % v/v) was 35.6 grams and the “ADF, Percent Increase Over the Untreated Check (on a % dry matter basis)” value (basil 'Genovese'; [5]) was −9 % check. The “Calcium, Percent Increase Over the Untreated Check (on a % dry matter basis)” value (basil 'Genovese'; [5]) was 2 % check, the “Copper, Percent Increase Over the Untreated Check (on a % dry matter basis)” value (basil 'Genovese'; [5]) was −8 % check and the “Iron, Percent Increase Over the Untreated Check (on a % dry matter basis)” value (basil 'Genovese'; [5]) was 6 % check. For the same compound, the “Magnesium, Percent Increase Over the Untreated Check (on a % dry matter basis)” value (basil 'Genovese'; [5]) was 16 % check, the “Manganese, Percent Increase Over the Untreated Check (on a % dry matter basis)” value (basil 'Genovese'; [5]) was 61 % check and the “NDF, Percent Increase Over the Untreated Check (on a % dry matter basis)” value (basil 'Genovese'; [5]) was −11 % check. For the same compound, the “Phosphorous, Percent Increase Over the Untreated Check (on a % dry matter basis)” value (basil 'Genovese'; [5]) was 26 % check, the “Potassium, Percent Increase Over the Untreated Check (on a % dry matter basis)” value (basil 'Genovese'; [5]) was −3 % check and the “Protein, Percent Increase Over the Untreated Check (on a % dry matter basis)” value (basil 'Genovese'; [5]) was 7 % check. The “Sodium, Percent Increase Over the Untreated Check (on a % dry matter basis)” value (basil 'Genovese'; [5]) was 8 % check, the “Soluble protein, Percent Increase Over the Untreated Check (on a % dry matter basis)” value (basil 'Genovese'; [5]) was 27 % check and the “Zinc, Percent Increase Over the Untreated Check (on a % dry matter basis)” value (basil 'Genovese'; [5]) was 53 % check. The “ADF, Percent Increase Over the Untreated Check (on a % dry matter basis)” value (basil 'Genovese'; [4]) was 7 % check, the “Calcium, Percent Increase Over the Untreated Check (on a % dry matter basis)” value (basil 'Genovese'; [4]) was 2 % check and the “Copper, Percent Increase Over the Untreated Check (on a % dry matter basis)” value (basil 'Genovese'; [4]) was 0 % check. The “Iron, Percent Increase Over the Untreated Check (on a % dry matter basis)” value (basil 'Genovese'; [4]) was 14 % check, the “Magnesium, Percent Increase Over the Untreated Check (on a % dry matter basis)” value (basil 'Genovese'; [4]) was 0 % check and the “Manganese, Percent Increase Over the Untreated Check (on a % dry matter basis)” value (basil 'Genovese'; [4]) was 61 % check. For the same compound, the “NDF, Percent Increase Over the Untreated Check (on a % dry matter basis)” value (basil 'Genovese'; [4]) was −8 % check, the “Phosphorous, Percent Increase Over the Untreated Check (on a % dry matter basis)” value (basil 'Genovese'; [4]) was 13 % check and the “Potassium, Percent Increase Over the Untreated Check (on a % dry matter basis)” value (basil 'Genovese'; [4]) was −4 % check. The “Protein, Percent Increase Over the Untreated Check (on a % dry matter basis)” value (basil 'Genovese'; [4]) was 13 % check, the “Sodium, Percent Increase Over the Untreated Check (on a % dry matter basis)” value (basil 'Genovese'; [4]) was −8 % check and the “Soluble protein, Percent Increase Over the Untreated Check (on a % dry matter basis)” value (basil 'Genovese'; [4]) was 89 % check. For the same compound, the “Zinc, Percent Increase Over the Untreated Check (on a % dry matter basis)” value (basil 'Genovese'; [4]) was 34 % check.
